The values that follow come from patent US6136821A, “Naphthyridine derivatives” (Novartis AG, priority 1996, dated 2000).

One data set deals with human eosinophils. Nature of the data set: Inhibition of eosinophil activation by formyl-MetLeuPhe (fMLP); oxidative burst (lucigenin chemiluminescence). Particulars: fMLP 1 μM, lucigenin 25 μM, purified human eosinophils. The class given is cell-based. Here is the method:
Anti-inflammatory activity: Inhibition of eosinophil activation by formyl-MetLeuPhe (fMLP)
Purified human eosinophils (10^4 /well in 0.2 ml HBSS) are stimulated with fMLP (1 μM) in the presence of lucigenin (25 μM). Inhibition of the oxidative burst (measured as changes in chemiluminescence) is determined from dose response curves using the logistic equation.

The nature of a further data set: Water solubility. To be noted: N-methyl-D-glucamine salt. The format is physicochemical.

One may read the IC50 as the concentration at which inhibition is half-maximal. A lower IC50 goes with higher potency. In turn, `Nc1cc2cccnc2c(-c2cccc3nonc23)n1` [Example 2, 6-amino-8-(4-benzo[c]furazanyl)-1,7-naphthyridine] came in with an IC50 in the data set on human eosinophils of 6 nM.

In the case of `CNC[C@H](O)[C@@H](O)[C@H](O)[C@H](O)CO.O=C(O)c1ccc(-c2cc3cccnc3c(-c3cccc4nonc34)n2)cc1` [Example 34, 6-(4-carboxyphenyl)-8-(4-benzo[c]furazanyl)-1,7-napthyridine: salt with N-methyl-D-glucamine], the water solubility entry in “Water solubility” was “water soluble”.
